In ChEMBL document CHEMBL1201862, “PubChem BioAssay data set” (2004):
Calls of active or inactive are those of the source.

Assays:
[1] = molecular target: FAD-linked sulfhydryl oxidase ALR (Homo sapiens, UniProt P55789); assay: ALR-catalysed DTT oxidation blockers – biochemical, H2O2 detection, luminescence, cherry-pick, dose response (AID 493248)
MDCK = assay: antiviral activity against H1N1 influenza, dose response, cell-based, strain KY136 (AID 540257); type: functional; conditions: Canis lupus familiaris
[2] = molecular target: Intestinal-type alkaline phosphatase (Mus musculus, UniProt P24822); assay: PubChem AID 488875; type: functional
[3] = molecular target: T1, Alkaline phosphatase, tissue-nonspecific isozyme (Homo sapiens, UniProt P05186); assay: activation of tissue-nonspecific alkaline phosphatase – biochemical, TNAP isozyme, human IAP uHTS hits, selectivity assay for human IAP activator project, dose response (AID 488886); type: functional;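 note: potency of compounds raising TNAP activity as a selectivity check on IAP activators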
T1 sequence (P05186 whole entry): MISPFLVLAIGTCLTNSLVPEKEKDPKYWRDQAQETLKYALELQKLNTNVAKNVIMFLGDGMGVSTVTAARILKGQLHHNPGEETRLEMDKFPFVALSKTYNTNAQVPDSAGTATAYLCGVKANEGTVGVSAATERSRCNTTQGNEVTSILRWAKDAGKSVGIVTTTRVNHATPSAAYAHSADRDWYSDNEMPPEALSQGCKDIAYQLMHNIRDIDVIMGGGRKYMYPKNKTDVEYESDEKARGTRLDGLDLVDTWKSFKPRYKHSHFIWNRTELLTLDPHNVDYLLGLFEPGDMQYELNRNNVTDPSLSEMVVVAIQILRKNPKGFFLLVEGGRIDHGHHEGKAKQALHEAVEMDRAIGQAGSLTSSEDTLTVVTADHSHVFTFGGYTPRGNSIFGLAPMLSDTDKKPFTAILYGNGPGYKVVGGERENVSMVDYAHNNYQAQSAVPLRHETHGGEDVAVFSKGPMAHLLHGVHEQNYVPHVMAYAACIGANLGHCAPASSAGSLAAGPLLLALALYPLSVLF

[4] = system: Streptococcus sp. 'group A'; assay: Streptococcus pyogenes SK(-)GAS viability under kanamycin – luminescence, BacTiterGlo, confirmation, counter-screen for streptokinase expression inhibitor project, dose response (AID 1900); type: functional, organism-based
[5] = molecular target: T2, Intestinal-type alkaline phosphatase (Homo sapiens, UniProt P09923); assay: activation of human intestinal alkaline phosphatase – biochemical, luminescent, uHTS hits, set 2, dose response (AID 488817); type: functional;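 note: potency of activators that raise enzyme activity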
[6] = molecular target: T3, High affinity choline transporter 1 (Homo sapiens, UniProt Q9GZV3); assay: human choline transporter blockers, potency – cell-based, 5-point CRC, membrane potential dye, dose response (AID 504840); type: functional
T3 sequence (Q9GZV3 whole entry): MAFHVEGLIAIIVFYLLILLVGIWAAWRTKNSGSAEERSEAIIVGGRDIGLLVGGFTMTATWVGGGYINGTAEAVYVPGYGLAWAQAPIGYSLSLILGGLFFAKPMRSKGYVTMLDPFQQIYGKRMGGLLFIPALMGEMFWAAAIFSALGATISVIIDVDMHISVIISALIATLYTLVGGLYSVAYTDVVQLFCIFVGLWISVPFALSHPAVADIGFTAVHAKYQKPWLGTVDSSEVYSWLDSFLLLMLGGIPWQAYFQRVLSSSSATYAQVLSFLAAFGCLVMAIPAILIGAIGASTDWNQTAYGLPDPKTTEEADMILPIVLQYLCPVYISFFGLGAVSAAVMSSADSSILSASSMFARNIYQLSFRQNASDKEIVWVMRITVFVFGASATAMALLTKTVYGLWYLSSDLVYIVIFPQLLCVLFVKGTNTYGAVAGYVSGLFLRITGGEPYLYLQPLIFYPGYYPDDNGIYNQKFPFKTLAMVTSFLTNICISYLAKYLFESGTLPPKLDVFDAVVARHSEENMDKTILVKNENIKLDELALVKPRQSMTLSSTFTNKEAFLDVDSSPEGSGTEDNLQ

Streptococcus = assay: GAS UMAA2166 growth inhibition – luminescence, BacTiterGlo, counter-screen for streptokinase expression inhibitor project, dose response (AID 1915); type: functional, organism-based;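 note: potency for reduction of bacterial viability or growth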
Streptokinase A = molecular target: T4, Streptokinase A (Streptococcus pyogenes serotype M1, UniProt P10520); assay: viability-normalized secreted streptokinase activity reduction – plasminogen activation absorbance, OD405, dose response (AID 1914); type: functional, Streptococcus pyogenes M1 GAS;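 note: secreted streptokinase activity via plasminogen activation per viability signal from cell pellet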
T4 sequence (P10520 whole entry): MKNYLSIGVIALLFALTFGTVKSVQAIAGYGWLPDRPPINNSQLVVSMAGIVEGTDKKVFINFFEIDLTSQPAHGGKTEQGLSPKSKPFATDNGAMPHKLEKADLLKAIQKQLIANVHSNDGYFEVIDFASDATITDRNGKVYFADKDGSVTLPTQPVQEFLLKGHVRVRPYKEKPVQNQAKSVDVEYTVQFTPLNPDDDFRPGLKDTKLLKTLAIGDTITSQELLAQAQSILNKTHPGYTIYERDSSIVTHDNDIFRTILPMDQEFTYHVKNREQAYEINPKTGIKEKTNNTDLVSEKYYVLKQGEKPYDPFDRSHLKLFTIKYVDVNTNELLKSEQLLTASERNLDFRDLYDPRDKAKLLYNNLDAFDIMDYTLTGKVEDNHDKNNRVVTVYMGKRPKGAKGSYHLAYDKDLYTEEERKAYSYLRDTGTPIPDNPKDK

[7] = molecular target: T2, Intestinal-type alkaline phosphatase; assay: human intestinal alkaline phosphatase activators, dose response, biochemical, luminescence, uHTS hits (AID 463120); type: functional
[8] = molecular target: T5, Corticotropin-releasing factor receptor 2/Corticotropin-releasing factor-binding protein (Homo sapiens, UniProt P24387+Q13324); assay: activators of CRF receptor 2 with binding protein – uHTS hits, confirmation (AID 602473); type: functional; conditions: read-out: EC50_Mean
T5 sequence (Q13324 whole entry): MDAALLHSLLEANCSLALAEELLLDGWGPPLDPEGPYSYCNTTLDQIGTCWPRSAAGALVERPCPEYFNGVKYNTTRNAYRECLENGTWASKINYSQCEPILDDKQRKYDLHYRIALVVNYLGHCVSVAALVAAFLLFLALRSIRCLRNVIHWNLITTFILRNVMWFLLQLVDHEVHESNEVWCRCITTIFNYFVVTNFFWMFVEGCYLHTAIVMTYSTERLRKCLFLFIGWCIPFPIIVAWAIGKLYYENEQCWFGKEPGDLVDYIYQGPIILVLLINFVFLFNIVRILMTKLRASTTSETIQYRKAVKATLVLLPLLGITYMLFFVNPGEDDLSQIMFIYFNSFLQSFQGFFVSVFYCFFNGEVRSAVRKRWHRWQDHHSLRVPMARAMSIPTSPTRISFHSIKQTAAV
T5 sequence (P24387 whole entry): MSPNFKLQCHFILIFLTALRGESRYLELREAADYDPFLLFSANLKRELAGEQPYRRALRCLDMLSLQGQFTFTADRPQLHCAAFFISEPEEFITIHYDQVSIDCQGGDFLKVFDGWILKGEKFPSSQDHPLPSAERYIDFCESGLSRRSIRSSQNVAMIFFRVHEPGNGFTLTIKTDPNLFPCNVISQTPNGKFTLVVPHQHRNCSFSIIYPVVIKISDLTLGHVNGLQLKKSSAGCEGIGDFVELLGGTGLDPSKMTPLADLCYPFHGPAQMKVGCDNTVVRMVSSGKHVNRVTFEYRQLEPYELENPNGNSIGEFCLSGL

[9] = molecular target: UDP-galactopyranose mutase (Mycobacterium tuberculosis, UniProt P9WIQ1); assay: Inhibitors of Mycobacterium tuberculosis UDP-galactopyranose mutase (UGM) enzyme Measured in Biochemical System Using Plate Reader - 2105-02_Inhibitor_Dose_CherryPick_Activity. [Related pubchem assays (depositor defined):AID504439]
Keap1/Nrf2 = Keap1/Nrf2 (Homo sapiens, UniProt Q14145); assay: disruptors of Keap1 binding to Nrf2 peptide – biochemical, fluorescence polarization, cherry-picked samples, dose response (AID 588683)
Candida albicans = assay: antifungal activity against resistant Candida strain – CaCi-8, fluconazole, Alamar Blue, dry powder, dose response (AID 488807); type: functional, organism-based
[10] = molecular target: Dual specificity protein phosphatase 6 (Rattus norvegicus, UniProt Q64346); type: functional;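 note: confirmatory in vitro dose-response testing of MKP-3 inhibition; recombinant His-tagged MKP-3 made in E. coli BL21 with OMFP substrate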
[11] = molecular target: Dual specificity protein phosphatase 3 (Homo sapiens, UniProt P51452); assay: SAR VHR1 Fluorescent Assay for In Vitro dose response studies Set 2. [Related pubchem assays (depositor defined):AID1654, AID1661, AID1878]; type: functional
[12] = viability of uninfected HEp-2 cells – cell-based, HTS, cytotoxicity control for RSV inhibitor project, dose response (AID 2410); type: functional; conditions: human respiratory syncytial virus
[13] = molecular target: T6, Tyrosine-protein phosphatase non-receptor type 7 (Homo sapiens, UniProt P35236); assay: redox-active compounds inhibiting HePTP phosphatase – biochemical, fluorescence, mechanism study (AID 2068); type: functional
T6 sequence (P35236 whole entry): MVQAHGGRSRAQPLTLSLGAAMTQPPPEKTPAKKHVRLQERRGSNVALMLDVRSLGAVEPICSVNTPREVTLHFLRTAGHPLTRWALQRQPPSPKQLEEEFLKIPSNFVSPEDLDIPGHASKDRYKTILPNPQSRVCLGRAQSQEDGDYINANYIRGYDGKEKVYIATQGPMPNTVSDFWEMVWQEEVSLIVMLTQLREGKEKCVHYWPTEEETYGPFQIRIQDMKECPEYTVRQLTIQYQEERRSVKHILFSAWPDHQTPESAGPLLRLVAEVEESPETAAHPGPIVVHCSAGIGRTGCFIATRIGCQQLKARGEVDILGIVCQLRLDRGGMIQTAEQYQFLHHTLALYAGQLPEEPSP

[14] = restored growth of temperature-sensitive Burl-1 yeast – whole organism, S. cerevisiae, Burl-1 ts mutant, luminescence, counter-screen for SUMOylation pathway inhibitor project, dose response (AID 463199); type: functional
[15] = Luminescence Cell-Based Dose Retest to Confirm Inhibitors of Cancer Stem Cells. [Related pubchem assays (depositor defined):AID2717, AID2721]; type: functional; conditions: Homo sapiens
[16] = viability loss of HMLE_sh_eGFP cells – cell-based, luminescence, counter-screen for HMLE_sh_ECad selective toxicity project, dose response (AID 463074); type: functional, Homo sapiens;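 note: HMLE human mammary epithelial cells expressing control shRNA against eGFP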

T2 sequence (P09923 whole entry): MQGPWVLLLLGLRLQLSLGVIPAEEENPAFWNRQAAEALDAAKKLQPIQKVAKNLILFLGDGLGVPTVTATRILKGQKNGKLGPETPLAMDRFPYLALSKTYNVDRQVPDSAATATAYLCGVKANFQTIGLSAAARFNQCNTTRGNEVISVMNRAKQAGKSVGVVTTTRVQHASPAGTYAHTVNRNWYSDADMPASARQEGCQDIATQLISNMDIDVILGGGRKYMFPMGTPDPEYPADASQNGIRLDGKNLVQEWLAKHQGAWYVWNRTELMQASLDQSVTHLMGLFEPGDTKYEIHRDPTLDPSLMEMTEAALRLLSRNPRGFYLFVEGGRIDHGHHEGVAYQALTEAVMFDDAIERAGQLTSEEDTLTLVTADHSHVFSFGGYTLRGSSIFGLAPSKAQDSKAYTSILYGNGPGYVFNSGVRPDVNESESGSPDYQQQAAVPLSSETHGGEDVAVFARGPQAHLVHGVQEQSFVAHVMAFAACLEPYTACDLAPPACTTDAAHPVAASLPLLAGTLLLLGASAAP
Dual specificity protein phosphatase 6, sequence (Q64346 whole entry): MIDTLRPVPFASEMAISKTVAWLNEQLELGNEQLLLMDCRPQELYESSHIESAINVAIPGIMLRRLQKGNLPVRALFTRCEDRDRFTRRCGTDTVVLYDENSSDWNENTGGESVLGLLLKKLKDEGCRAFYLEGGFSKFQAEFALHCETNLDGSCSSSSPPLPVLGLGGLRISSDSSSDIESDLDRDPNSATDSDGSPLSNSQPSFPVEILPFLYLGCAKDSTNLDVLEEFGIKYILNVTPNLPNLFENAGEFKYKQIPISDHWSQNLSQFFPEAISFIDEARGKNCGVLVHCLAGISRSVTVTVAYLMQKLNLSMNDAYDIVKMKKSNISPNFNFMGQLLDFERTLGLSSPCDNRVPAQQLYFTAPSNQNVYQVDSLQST
Keap1/Nrf2, sequence (Q16236 whole entry): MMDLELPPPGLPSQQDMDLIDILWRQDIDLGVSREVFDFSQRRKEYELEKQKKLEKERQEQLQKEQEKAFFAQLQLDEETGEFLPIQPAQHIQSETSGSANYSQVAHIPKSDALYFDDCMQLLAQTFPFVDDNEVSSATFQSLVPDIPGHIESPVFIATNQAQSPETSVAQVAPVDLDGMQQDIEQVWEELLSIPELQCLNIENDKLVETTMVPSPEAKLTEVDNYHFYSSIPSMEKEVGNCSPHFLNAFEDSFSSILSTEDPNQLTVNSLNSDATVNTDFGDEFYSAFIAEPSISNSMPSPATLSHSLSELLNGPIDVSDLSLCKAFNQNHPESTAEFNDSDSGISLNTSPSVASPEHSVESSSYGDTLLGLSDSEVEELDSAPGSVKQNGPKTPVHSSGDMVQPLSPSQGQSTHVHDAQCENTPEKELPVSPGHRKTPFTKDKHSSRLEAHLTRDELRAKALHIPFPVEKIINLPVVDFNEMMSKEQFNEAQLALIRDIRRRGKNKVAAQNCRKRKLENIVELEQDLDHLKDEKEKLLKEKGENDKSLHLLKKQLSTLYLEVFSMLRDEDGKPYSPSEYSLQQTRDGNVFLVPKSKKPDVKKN
Keap1/Nrf2, sequence (Q14145 whole entry): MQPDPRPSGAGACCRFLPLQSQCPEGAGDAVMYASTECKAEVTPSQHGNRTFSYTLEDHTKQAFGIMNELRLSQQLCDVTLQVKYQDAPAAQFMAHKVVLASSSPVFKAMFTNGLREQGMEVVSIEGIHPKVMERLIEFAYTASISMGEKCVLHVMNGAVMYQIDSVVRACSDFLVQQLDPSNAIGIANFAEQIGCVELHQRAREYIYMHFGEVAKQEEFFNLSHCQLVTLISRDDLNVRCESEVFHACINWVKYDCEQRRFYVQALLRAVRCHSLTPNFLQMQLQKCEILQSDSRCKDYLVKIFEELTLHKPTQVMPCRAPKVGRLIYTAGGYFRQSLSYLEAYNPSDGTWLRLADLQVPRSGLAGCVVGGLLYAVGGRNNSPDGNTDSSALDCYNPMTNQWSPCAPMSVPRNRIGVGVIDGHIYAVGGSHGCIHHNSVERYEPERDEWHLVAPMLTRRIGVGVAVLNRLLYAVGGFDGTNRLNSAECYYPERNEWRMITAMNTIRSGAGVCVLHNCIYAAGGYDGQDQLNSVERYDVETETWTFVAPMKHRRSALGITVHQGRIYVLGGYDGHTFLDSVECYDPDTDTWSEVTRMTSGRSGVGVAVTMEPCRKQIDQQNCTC
UDP-galactopyranose mutase, sequence (P9WIQ1 whole entry): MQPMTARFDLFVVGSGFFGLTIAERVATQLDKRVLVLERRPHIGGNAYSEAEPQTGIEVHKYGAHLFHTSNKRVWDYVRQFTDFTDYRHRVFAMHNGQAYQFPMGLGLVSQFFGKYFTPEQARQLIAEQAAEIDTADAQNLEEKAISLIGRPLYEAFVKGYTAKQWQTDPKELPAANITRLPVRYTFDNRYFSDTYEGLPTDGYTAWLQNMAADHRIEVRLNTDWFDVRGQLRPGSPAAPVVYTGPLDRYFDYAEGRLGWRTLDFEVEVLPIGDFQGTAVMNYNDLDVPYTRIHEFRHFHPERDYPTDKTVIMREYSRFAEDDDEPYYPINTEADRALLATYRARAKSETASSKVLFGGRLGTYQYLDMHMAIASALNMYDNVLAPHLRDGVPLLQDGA
FAD-linked sulfhydryl oxidase ALR, sequence (P55789 whole entry): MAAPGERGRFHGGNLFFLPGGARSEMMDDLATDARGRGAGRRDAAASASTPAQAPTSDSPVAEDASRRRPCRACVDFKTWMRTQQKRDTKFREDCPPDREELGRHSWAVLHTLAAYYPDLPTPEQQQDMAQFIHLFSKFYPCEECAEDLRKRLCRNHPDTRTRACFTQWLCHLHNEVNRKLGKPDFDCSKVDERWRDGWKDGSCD
Intestinal-type alkaline phosphatase (Mus musculus, UniProt P24822), sequence (P24822 whole entry): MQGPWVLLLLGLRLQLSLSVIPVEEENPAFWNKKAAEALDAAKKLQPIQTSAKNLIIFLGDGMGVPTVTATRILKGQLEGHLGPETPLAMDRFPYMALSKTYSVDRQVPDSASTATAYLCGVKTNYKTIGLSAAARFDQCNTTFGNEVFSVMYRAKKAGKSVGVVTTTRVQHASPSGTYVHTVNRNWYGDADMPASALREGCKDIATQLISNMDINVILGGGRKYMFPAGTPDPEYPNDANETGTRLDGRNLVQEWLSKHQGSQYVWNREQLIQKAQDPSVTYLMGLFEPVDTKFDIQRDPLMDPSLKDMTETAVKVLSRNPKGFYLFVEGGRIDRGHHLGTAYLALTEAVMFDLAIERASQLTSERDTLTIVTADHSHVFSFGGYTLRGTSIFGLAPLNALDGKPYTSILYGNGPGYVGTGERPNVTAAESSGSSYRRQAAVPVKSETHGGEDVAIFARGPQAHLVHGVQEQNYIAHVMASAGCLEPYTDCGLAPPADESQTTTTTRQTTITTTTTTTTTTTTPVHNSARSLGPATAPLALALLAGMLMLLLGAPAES
Dual specificity protein phosphatase 3, sequence (P51452 whole entry): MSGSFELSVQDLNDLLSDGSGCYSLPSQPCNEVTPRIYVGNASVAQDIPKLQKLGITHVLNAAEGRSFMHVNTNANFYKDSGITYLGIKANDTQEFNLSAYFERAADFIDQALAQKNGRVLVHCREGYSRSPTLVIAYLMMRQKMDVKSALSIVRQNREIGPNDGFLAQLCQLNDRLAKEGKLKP

## Cc1ccc(N2C(=O)C(CC(=O)Nc3cccc(F)c3)N(C3CC3)C2=O)cc1 (centres undefined)
[1]
  AC50: < 0.014 µM (active)
MDCK
  IC50: 52.3 µM (active)

## Cc1cccc(CC(Cc2nc3ccccc3[nH]2)c2nc3ccccc3[nH]2)c1 (centres undefined)
[2]
  EC50: 28.9 µM (active)
[3]
  EC50: 62.1 µM (active)
[4]
  EC50: 9.33 µM (active)
[5]
  EC50: 47.7 µM (active)
[6]
  IC50: 12.6 µM (active)
Streptococcus
  EC50: 26.7 µM (active)
Streptokinase A
  EC50: > 150 µM (not active)
[7]
  EC50: 29.8 µM (active)

## CN1/C(=C\C=C(C#N)C#N)C(C)(C)c2ccccc21
[8]
  EC50: 10.8 µM (active)
[9]
  AC50: 114 µM (active)
Keap1/Nrf2
  AC50: 28.7 µM (active)

## O=C(Cn1c2ccccc2c2nc3n(c(=O)c21)CCS3)N1CCCC1
Candida albicans
  AC50: 2.91 µM (active)

## NS(=O)(=O)c1cc(C(=O)Nc2ccc3c(c2)CCC3)ccc1Cl
[10]
  IC50: > 100 µM (inactive)
[11]
  IC50: > 100 µM (inactive)
[12]
  CC50: 39 µM (active)
[13]
  IC50: > 100 µM (inactive)

## CC(C)CCn1c(=O)c2ccccc2c2ccccc2c1=O
[14]
  AC50: 58.1 µM (active)

## Cc1ccc(N(C)S(=O)(=O)c2cccc(C(=O)Nc3nc4ccccc4[nH]3)c2)cc1
[4]
  EC50: 1.71 µM (active)
Streptococcus
  EC50: 17.4 µM (active)
[15]
  AC50: 4.1 µM (active)
Streptokinase A
  EC50: > 150 µM (not active)
[16]
  AC50: 32.2 µM (active)
